Reference: ChEMBL document CHEMBL5390303, “Discovery of Potent and Oral Bioavailable MAT2A Inhibitors for the Treatment of MTAP-Deleted Tumors” (ACS Med Chem Lett, 2023)
Blank lines part the entries; values can stand above or below the compound they belong to.

Tests used:
[1] = molecular target: S-adenosylmethionine synthase isoform type-2 (Homo sapiens, UniProt P31153); test: Inhibition of MAT2A (unknown origin) using L-methionine as substrate preincubated for 30 mins followed by substrate addition measured after 60 mins by colorimetric assay
[2] = molecular target: Cytochrome P450 2C19 (Homo sapiens, UniProt P33261); test: Inhibition of human liver microsomes CYP2C19 incubated for 5 mins with compound followed by substrate and NADPH addition measured after 10 mins by LC-MS/MS analysis; type: ADME, Microsome
[3] = Toxicity in Nu/Nu mouse xenografted with MTAP-knockout human HCT-116 cells assessed as maximum body weight loss at 10 to 20 mg/kg, po qd measured after 21 days; type: organism-based; details: in vivo, 504 h, dose 10-20 mg/kg, time 21 day
[4] = Cmax in ICR mouse plasma at 10 mg/kg, IG measured after 24 hrs by LC-MS/MS analysis; type: ADME, organism-based; set-up: dose 10 mg/kg, time 24 hrs, route ig; details: po
[5] = test system: HCT-116; test: Antitumor activity against MTAP-knockout human HCT-116 cells xenografted in Nu/Nu mouse model assessed as tumor growth inhibition at 20 mg/kg, po qd measured after 21 days relative to control; type: functional; details: HCT-116, 504 h, time 21 day, read-out: TGI
[6] = Plasma protein binding in rat assessed as unbound fraction at 1 uM incubated for 6 hrs by LC-MS/MS based rapid equlibrium dialysis method; type: ADME, cell-free
[7] = Metabolic stability in human liver microsomes assessed as intrinsic clearance; type: ADME, Microsome; details: read-out: CLH
[8] = Plasma protein binding in human assessed as unbound fraction at 1 uM incubated for 6 hrs by LC-MS/MS based rapid equlibrium dialysis method relative to control; type: ADME, cell-free
[9] = molecular target: Cytochrome P450 3A4 (Homo sapiens, UniProt P08684); test: Inhibition of human liver microsomes CYP3A4 using Midazolam as substrate incubated for 5 mins with compound followed by substrate and NADPH addition measured after 5 mins by LC-MS/MS analysis; type: ADME, Microsome
[10] = Half life in male Sprague-Dawley rat plasma at 10 mg/kg, po incubated for 24 hrs by LC-MS/MS analysis; type: ADME, organism-based
[11] = Tmax in ICR mouse plasma at 10 mg/kg, IG measured after 24 hrs by LC-MS/MS analysis; type: ADME, organism-based; details: po
[12] = Tmax in male Sprague-Dawley rat plasma at 10 mg/kg, po incubated for 24 hrs by LC-MS/MS analysis; type: ADME, organism-based
[13] = test system: HCT-116; test: Antitumor activity against MTAP-knockout human HCT-116 cells xenografted in Nu/Nu mouse model assessed as reduction in SAM concentration at 20 mg/kg, po qd administered for 21 days measured after 10 hrs post last dose relative to control; type: functional; set-up: scale not given: the % may be the effect or the level left; details: time 514 hrs
[14] = AUClast in male Beagle dog at 3 mg/kg, po incubated for 24 hrs by LC-MS/MS analysis; type: ADME, organism-based, Canis lupus familiaris; set-up: dose 3 mg/kg, time 24 hrs, route po; details: in vivo
[15] = test system: HCT-116; test: Antitumor activity against MTAP-knockout human HCT-116 cells xenografted in Nu/Nu mouse model assessed as tumor growth inhibition at 10 mg/kg, po qd measured after 21 days relative to control; type: functional; details: HCT-116, 504 h, time 21 day, read-out: TGI
[16] = Half life in male Beagle dog at 3 mg/kg, po incubated for 24 hrs by LC-MS/MS analysis; type: ADME, organism-based, Canis lupus familiaris; details: in vivo
[17] = Half life in ICR mouse plasma at 10 mg/kg, IG measured after 24 hrs by LC-MS/MS analysis; type: ADME, organism-based; details: po
[18] = Plasma protein binding in dog assessed as unbound fraction at 1 uM incubated for 6 hrs by LC-MS/MS based rapid equlibrium dialysis method; type: ADME, cell-free, Canis lupus familiaris
[19] = molecular target: Cytochrome P450 2C9 (Homo sapiens, UniProt P11712); test: Inhibition of human liver microsomes CYP2C9 using Diclofenac as substrate incubated for 5 mins with compound followed by substrate and NADPH addition measured after 10 mins by LC-MS/MS analysis; type: ADME, Microsome
[20] = test system: HCT-116; test: Antiproliferative activity against MTAP knockout human HCT-116 assessed as inhibition of cell proliferation incubated for 6 days by alamar blue reagent based analysis; type: functional; details: HCT-116, 144 h
[21] = Plasma protein binding in mouse assessed as unbound fraction at 1 uM incubated for 6 hrs by LC-MS/MS based rapid equlibrium dialysis method; type: ADME, cell-free
[22] = AUClast in ICR mouse plasma at 10 mg/kg, IG incubated for 24 hrs by LC-MS/MS analysis; type: ADME, organism-based; set-up: dose 10 mg/kg, time 24 hrs, route ig; details: po
[23] = molecular target: Cytochrome P450 2D6 (Homo sapiens, UniProt P10635); test: Inhibition of human liver microsomes CYP2D6 using Dextromethorphan as substrate incubated for 5 mins with compound followed by substrate and NADPH addition measured after 10 mins by LC-MS/MS analysis; type: ADME, Microsome
[24] = Tmax in male Beagle dog at 3 mg/kg, po incubated for 24 hrs by LC-MS/MS analysis; type: ADME, organism-based, Canis lupus familiaris; details: in vivo
[25] = AUC(0 to last) in male Sprague-Dawley rat at 10 mg/kg, po incubated for 24 hrs by LC-MS/MS analysis; type: ADME, organism-based; set-up: dose 10 mg/kg, time 24 hrs, route po; details: in vivo
[26] = Cmax in male Sprague-Dawley rat plasma at 10 mg/kg, po incubated for 24 hrs by LC-MS/MS analysis; type: ADME, organism-based; set-up: time 24 hrs, dose 10 mg/kg, route po
[27] = Cmax in male Beagle dog at 3 mg/kg, po incubated for 24 hrs by LC-MS/MS analysis; type: ADME, organism-based, Canis lupus familiaris; set-up: dose 3 mg/kg, time 24 hrs, route po; details: in vivo
[28] = test system: HCT-116; test: Antitumor activity against MTAP-knockout human HCT-116 cells xenografted in Nu/Nu mouse model assessed as inhibition of tumor growth at 50 mg/kg, po qd measured after 21 days relative to control; type: functional; details: HCT-116, 504 h, time 21 day, read-out: TGI

Sequence of S-adenosylmethionine synthase isoform type-2 (P31153 whole entry, canonical isoform): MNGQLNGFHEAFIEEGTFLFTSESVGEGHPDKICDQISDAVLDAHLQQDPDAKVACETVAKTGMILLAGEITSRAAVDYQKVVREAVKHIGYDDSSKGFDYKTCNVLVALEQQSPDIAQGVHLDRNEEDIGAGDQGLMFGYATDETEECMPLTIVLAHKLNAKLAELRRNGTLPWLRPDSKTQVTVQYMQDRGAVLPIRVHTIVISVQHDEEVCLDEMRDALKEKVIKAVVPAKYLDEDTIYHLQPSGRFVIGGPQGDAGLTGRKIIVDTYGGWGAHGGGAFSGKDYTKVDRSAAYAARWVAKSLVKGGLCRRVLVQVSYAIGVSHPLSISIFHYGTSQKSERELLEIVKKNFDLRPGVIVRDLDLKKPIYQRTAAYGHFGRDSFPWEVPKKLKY
Sequence of Cytochrome P450 2C19 (P33261 whole entry): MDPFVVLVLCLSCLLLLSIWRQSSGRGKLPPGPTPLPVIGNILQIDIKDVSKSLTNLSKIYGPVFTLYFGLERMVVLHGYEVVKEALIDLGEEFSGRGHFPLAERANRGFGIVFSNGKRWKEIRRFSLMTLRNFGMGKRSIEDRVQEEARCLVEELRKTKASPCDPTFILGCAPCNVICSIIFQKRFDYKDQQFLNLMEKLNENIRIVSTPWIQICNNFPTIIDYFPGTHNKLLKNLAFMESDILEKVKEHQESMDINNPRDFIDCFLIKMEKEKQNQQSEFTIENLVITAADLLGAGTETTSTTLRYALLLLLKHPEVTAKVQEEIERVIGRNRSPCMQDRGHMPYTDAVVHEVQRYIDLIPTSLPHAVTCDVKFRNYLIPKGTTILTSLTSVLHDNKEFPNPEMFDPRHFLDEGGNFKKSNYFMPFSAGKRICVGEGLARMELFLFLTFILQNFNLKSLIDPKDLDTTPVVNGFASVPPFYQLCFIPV
Sequence of Cytochrome P450 3A4 (P08684 whole entry): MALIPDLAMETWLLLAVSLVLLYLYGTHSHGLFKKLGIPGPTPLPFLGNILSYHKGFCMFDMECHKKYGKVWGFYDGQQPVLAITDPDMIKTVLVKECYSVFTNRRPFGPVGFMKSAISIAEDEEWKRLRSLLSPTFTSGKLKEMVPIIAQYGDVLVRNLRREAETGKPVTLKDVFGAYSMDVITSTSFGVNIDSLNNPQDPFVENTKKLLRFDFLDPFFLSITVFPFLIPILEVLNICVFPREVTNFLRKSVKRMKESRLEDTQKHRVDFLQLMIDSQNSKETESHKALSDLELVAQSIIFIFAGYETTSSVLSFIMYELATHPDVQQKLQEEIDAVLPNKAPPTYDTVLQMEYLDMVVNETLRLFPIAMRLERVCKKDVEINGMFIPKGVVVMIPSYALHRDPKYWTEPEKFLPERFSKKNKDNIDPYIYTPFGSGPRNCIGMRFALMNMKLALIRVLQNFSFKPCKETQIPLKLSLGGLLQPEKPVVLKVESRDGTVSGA
Sequence of Cytochrome P450 2D6 (P10635 whole entry): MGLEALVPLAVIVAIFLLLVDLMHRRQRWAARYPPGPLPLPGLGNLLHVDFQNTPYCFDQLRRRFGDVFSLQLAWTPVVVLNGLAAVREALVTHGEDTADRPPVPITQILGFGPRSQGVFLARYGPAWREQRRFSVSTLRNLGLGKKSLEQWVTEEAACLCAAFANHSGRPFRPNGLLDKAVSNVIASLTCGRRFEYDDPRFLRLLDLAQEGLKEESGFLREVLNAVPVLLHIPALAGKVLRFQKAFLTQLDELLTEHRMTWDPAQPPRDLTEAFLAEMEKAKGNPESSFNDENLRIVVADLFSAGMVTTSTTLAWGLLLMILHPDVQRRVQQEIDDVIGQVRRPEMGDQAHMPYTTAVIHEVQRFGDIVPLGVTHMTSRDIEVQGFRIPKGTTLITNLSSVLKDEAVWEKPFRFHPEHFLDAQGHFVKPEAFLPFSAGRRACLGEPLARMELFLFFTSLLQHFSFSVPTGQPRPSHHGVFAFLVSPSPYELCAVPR
Sequence of Cytochrome P450 2C9 (P11712 whole entry): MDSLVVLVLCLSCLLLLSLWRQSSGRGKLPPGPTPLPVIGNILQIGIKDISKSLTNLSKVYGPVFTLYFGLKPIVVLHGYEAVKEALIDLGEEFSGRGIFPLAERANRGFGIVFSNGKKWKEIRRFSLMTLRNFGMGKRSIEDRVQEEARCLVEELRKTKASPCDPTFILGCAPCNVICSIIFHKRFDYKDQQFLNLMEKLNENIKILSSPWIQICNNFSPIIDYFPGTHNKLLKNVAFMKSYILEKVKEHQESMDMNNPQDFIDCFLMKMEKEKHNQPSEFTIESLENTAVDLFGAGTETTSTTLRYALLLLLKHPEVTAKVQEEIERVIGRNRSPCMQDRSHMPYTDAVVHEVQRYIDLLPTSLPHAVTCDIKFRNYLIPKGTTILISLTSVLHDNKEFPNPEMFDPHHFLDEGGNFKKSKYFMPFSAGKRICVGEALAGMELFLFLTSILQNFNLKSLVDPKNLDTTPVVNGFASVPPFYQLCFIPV

Structure (SMILES): CNc1nc(=O)c(-c2cccc(Cl)c2)c2cc(C(F)(F)F)ccn12
IC50 [1]: 107 nM

Structure (SMILES): CNc1nc(=O)c(-c2cccc(C)c2)c2cc(C(F)(F)F)ccn12
IC50 [1]: 60 nM

Structure (SMILES): O=c1nc(N[C@H]2C[C@H](O)C2)n2ccc(C(F)(F)F)cc2c1-c1ccccc1F
IC50 [1]: 192 nM

Structure (SMILES): CNc1nc(=O)c(-c2ccccc2Cl)c2cc(C(F)(F)F)cnn12
IC50 [1]: > 10000 nM

Structure (SMILES): CNc1nc(=O)c(-c2cccc(F)c2)c2cc(C(F)(F)F)ccn12
IC50 [1]: 42 nM

Structure (SMILES): CNc1nc(=O)c(-c2ccccc2Cl)c2cc(C(F)F)ccn12
IC50 [1]: 49 nM

Structure (SMILES): CNc1nc(=O)c(-c2ccc(C)cc2)c2cc(C(F)(F)F)ccn12
IC50 [1]: 347 nM

Structure (SMILES): CNc1nc(=O)c(-c2cccc(C#N)c2)c2cc(C(F)(F)F)ccn12
IC50 [1]: 199 nM

Structure (SMILES): CNc1cc(=O)n(-c2ccccc2Cl)c2nc(C(F)(F)F)ccc12
IC50 [1]: 252 nM

Structure (SMILES): CNc1nc(=O)c(-c2ccccc2)c2cc(C(F)(F)F)ccn12
IC50 [1]: 65 nM

Structure (SMILES): O=c1nc(NC2CC2)n2ccc(C(F)(F)F)cc2c1-c1cccc(F)c1
IC50 [1]: 46 nM

Structure (SMILES): CNc1nc(=O)c(-c2ccccc2F)c2cc(C(F)(F)F)ccn12
IC50 [1]: 45 nM

Structure (SMILES): O=c1nc(NC2CC2)n2ccc(C(F)(F)F)cc2c1-c1cccc(O)c1F
Cmax [4]: 3960 ng/mL | Tmax [11]: 0.33 h | half-life [17]: 7.7 h | AUC(0-t) at 24 h [22]: 8880 ng·h/mL | IC50 [1]: 31 nM

Structure (SMILES): O=c1nc(NC2CC2)n2ccc(C(F)(F)F)cc2c1-c1ccccc1F
IC50 [1]: 120 nM

Structure (SMILES): CC(C)Nc1nc(=O)c(-c2ccccc2F)c2cc(C(F)(F)F)ccn12
IC50 [1]: 80 nM

Structure (SMILES): O=c1nc(NCC(F)F)n2ccc(C(F)(F)F)cc2c1-c1ccccc1F
IC50 [1]: 119 nM

Structure (SMILES): COc1ccc(-c2c(Nc3ccccn3)[nH]c3c(C4=CCCCC4)c(-c4ccccc4)nn3c2=O)cc1
inhibition in vivo at 50 mg/kg [28]: 43%

Structure (SMILES): CNc1nc(=O)c(-c2ccccc2Cl)c2cc(C(F)(F)F)ccn12
IC50 [1]: 49 nM

Structure (SMILES): CNc1nc(=O)n(-c2ccccc2Cl)c2c1CCN(C)C2
IC50 [1]: > 10000 nM

Now from value to compound, other results behind:

IC50 [1]: 65 nM
Structure (SMILES): CNc1nc(=O)c(-c2c(F)cccc2F)c2cc(C(F)(F)F)ccn12

IC50 [1]: 2550 nM
Structure (SMILES): O=C(C1CC1)N1CC(=O)N(c2ccccc2Cl)c2cc(C(F)(F)F)ccc21

IC50 [1]: 68 nM
Structure (SMILES): CNc1nc(=O)c(-c2ccccc2C(C)C)c2cc(C(F)(F)F)ccn12

IC50 [1]: 531 nM
Structure (SMILES): O=c1nc(N2CCCC2)n2ccc(C(F)(F)F)cc2c1-c1ccccc1F

IC50 [1]: 268 nM
Structure (SMILES): CNc1nc(=O)n(-c2ccccc2Cl)c2cc(C(F)(F)F)sc12

IC50 [1]: 121 nM
Structure (SMILES): O=c1nc(NC2CCC2)n2ccc(C(F)(F)F)cc2c1-c1ccccc1F

IC50 [1]: 53 nM
Structure (SMILES): CNc1nc(=O)c(-c2ccccc2Cl)c2cc(C3CC3)ccn12

IC50 [2]: > 10000 nM | Cmax [4]: 16200 ng/mL | fraction unbound at 6 h, 1 µM [6]: 0.329 | CLint scaled [7]: 1.4 mL/min/kg | fraction unbound at 6 h, 1 µM [8]: 0.216 | IC50 [9]: > 10000 nM | half-life [10]: 3 h | Tmax [11]: 0.67 h | Tmax [12]: 3.3 h | AUC(0-t) at 24 h [14]: 9310 ng·h/mL | half-life [16]: 2.6 h | half-life [17]: 3.3 h | fraction unbound at 6 h, 1 µM [18]: 0.325 | IC50 [19]: > 10000 nM | IC50 [20]: 273 nM | fraction unbound at 6 h, 1 µM [21]: 0.091 | AUC(0-t) at 24 h [22]: 34000 ng·h/mL | IC50 [23]: > 10000 nM | Tmax [24]: 1.3 h | AUC(0-t) at 24 h [25]: 16200 ng·h/mL | Cmax [26]: 2820 ng/mL | IC50 [1]: 40 nM | Cmax [27]: 1680 ng/mL
Structure (SMILES): O=c1nc(NC2CC2)n2ccc(C(F)(F)F)cc2c1-c1cccnc1F
Activity [3]: 11% | inhibition in vivo at 20 mg/kg [5]: 60% | Activity [13]: 79% | inhibition in vivo at 10 mg/kg [15]: 48%

IC50 [1]: 143 nM
Structure (SMILES): CNc1nc(=O)c(-c2ccccc2Cl)c2cc(C)ccn12
